# Measurements: patent US9708308B2, “Factor IXa inhibitors” (Merck Sharp & Dohme Corp., priority 2012, dated 2017)
# Biological target: Factor IXa (Homo sapiens, UniProt P00740)
# Assay: Determination of inhibitory activity against Factor IXa (cleavage of fluorescent peptide substrate)
# Assay type: biochemical
# Settings: cleavage of fluorescent peptide CH3SO2-D-CHG-Gly-Arg-AFC, release of AFC; read-out: FIXa IC50
# From the text: • (R)—N-(3-aminobenzo[d]isoxazol-6-yl)-2-hydroxy-2-((R)-4-(1-(6-methoxypyridazin-4-yl)-1H-pyrazol-3-yl)-6,6-dimethyl-3-oxomorpholin-2-yl)acetamide. Determination of Inhibitory Activity Against Factor IXa
# Formation of a clot to stem bleeding at a site of blood vessel injury involves the coordinated activity of a group of plasma proteins that initiate and propagate fibrin formation and subsequently protect fibrin from premature degradation. Factor IX is a key component of the plasma system that forms a fibrin clot at a site of vascular injury. The activity of Factor IXa is measured by monitoring the cleavage of the fluorescent peptide, CH3SO2-D-CHG-Gly-Arg-AFC.AcOH (“CHG” is cyclohexyl-glycine and “AFC” is trifluoro aminomethyl coumarin). Factor IXa cleaves the amide bond between Arg and AFC, thereby releasing the AFC fluorophore. The free AFC can be detected with a fluorescence detector at an excitation wavelength of 405 nm and emission wavelength of 510 nm.
# Chain of Factor IXa (P00740 227-461 limits assumed): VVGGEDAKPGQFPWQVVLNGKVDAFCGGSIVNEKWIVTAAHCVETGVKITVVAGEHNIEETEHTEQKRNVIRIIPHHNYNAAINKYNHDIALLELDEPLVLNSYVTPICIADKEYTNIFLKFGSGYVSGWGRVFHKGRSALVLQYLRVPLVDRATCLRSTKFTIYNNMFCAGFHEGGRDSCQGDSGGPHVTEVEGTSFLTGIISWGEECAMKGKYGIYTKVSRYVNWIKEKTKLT
# Chain of Factor IXa (P00740 47-191 partner limits assumed): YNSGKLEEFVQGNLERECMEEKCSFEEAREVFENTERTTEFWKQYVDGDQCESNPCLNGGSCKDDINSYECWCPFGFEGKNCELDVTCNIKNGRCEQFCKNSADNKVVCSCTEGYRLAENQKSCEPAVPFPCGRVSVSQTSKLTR
row,Compound,IC50 [µM]
1,"C[C@](O)(C(=O)Nc1ccc2c(N)noc2c1)[C@H]1OCCN(c2ccn(-c3ccnc(C#N)c3)n2)C1=O [Example 21, (R)—N-(3-aminobenzo[d]isoxazol-6-yl)-2-((R)-4-(1-(2-cyanopyridin-4-yl)-1H-pyrazol-3-yl)-3-oxomorpholin-2-yl)-2-hydroxypropanamide]",0.016
2,"C[C@](O)(C(=O)Nc1ccc2c(N)noc2c1)[C@H]1OCCN(c2ccn(-c3ccnc(C(F)(F)F)c3)n2)C1=O [Example 22, (R)—N-(3-aminobenzo[d]isoxazol-6-yl)-2-hydroxy-2-((R)-3-oxo-4-(1-(2-(trifluoromethyl)pyridin-4-yl)-1H-pyrazol-3-yl)morpholin-2-yl)propanamide]",0.0369
3,"CCOc1cc(-n2ccc(N3CCO[C@H]([C@@](C)(O)C(=O)Nc4ccc5c(N)noc5c4)C3=O)n2)ccn1 [Example 23, (R)—N-(3-aminobenzo[d]isoxazol-6-yl)-2-((R)-4-(1-(2-ethoxypyridin-4-yl)-1H-pyrazol-3-yl)-3-oxomorpholin-2-yl)-2-hydroxypropanamide]",0.113
4,"CC(C)Oc1cc(-n2ccc(N3CCO[C@H]([C@@](C)(O)C(=O)Nc4ccc5c(N)noc5c4)C3=O)n2)ccn1 [Example 24, (R)—N-(3-aminobenzo[d]isoxazol-6-yl)-2-hydroxy-2-((R)-4-(1-(2-isopropoxypyridin-4-yl)-1H-pyrazol-3-yl)-3-oxomorpholin-2-yl)propanamide]",0.387
5,"CN(C)c1cc(-n2ccc(N3CCO[C@H]([C@@](C)(O)C(=O)Nc4ccc5c(N)noc5c4)C3=O)n2)ccn1 [Example 25, (R)—N-(3-aminobenzo[d]isoxazol-6-yl)-2-((R)-4-(1-(2-(dimethylamino)pyridin-4-yl)-1H-pyrazol-3-yl)-3-oxomorpholin-2-yl)-2-hydroxypropanamide]",0.0954
6,"COc1cc(-n2ccc(N3CCO[C@H]([C@@](C)(O)C(=O)Nc4ccc5c(N)noc5c4)C3=O)n2)c(Br)cn1 [Example 26, (R)—N-(3-aminobenzo[d]isoxazol-6-yl)-2-((R)-4-(1-(5-bromo-2-methoxypyridin-4-yl)-1H-pyrazol-3-yl)-3-oxomorpholin-2-yl)-2-hydroxypropanamide]",0.346
7,"COc1cc(-n2ccc(N3CCO[C@H]([C@@](C)(O)C(=O)Nc4ccc5c(N)noc5c4)C3=O)n2)c(F)cn1 [Example 27, (R)—N-(3-aminobenzo[d]isoxazol-6-yl)-2-((R)-4-(1-(5-fluoro-2-methoxypyridin-4-yl)-1H-pyrazol-3-yl)-3-oxomorpholin-2-yl)-2-hydroxypropanamide]",0.148
8,"COc1cc(-n2ccc(N3CCO[C@H]([C@@](C)(O)C(=O)Nc4ccc5c(N)noc5c4)C3=O)n2)c(Cl)cn1 [Example 28, (R)—N-(3-aminobenzo[d]isoxazol-6-yl)-2-((R)-4-(1-(5-chloro-2-methoxypyridin-4-yl)-1H-pyrazol-3-yl)-3-oxomorpholin-2-yl)-2-hydroxypropanamide]",0.445
9,"COc1cc(-n2ccc(N3CCO[C@H]([C@@](C)(O)C(=O)Nc4ccc5c(N)noc5c4)C3=O)n2)c(C(F)(F)F)cn1 [Example 29, (R)—N-(3-aminobenzo[d]isoxazol-6-yl)-2-hydroxy-2-((R)-4-(1-(2-methoxy-5-(trifluoromethyl)pyridin-4-yl)-1H-pyrazol-3-yl)-3-oxomorpholin-2-yl)propanamide]",0.106
10,"C[C@](O)(C(=O)Nc1ccc2c(N)noc2c1)[C@H]1OCCN(c2nn(-c3ccnc(C(F)(F)F)c3)cc2F)C1=O [Example 30, (R)—N-(3-aminobenzo[d]isoxazol-6-yl)-2-((R)-4-(4-fluoro-1-(2-(trifluoromethyl)pyridin-4-yl)-1H-pyrazol-3-yl)-3-oxomorpholin-2-yl)-2-hydroxypropanamide]",0.0362
11,"C[C@](O)(C(=O)Nc1ccc2c(N)noc2c1)[C@H]1OCCN(c2nn(-c3ccnc(C#N)c3)cc2F)C1=O [Example 31, (R)—N-(3-aminobenzo[d]isoxazol-6-yl)-2-((R)-4-(1-(2-cyanopyridin-4-yl)-4-fluoro-1H-pyrazol-3-yl)-3-oxomorpholin-2-yl)-2-hydroxypropanamide]",0.031
12,"COc1cc(-n2cc(Cl)c(N3CCO[C@H]([C@@](C)(O)C(=O)Nc4ccc5c(N)noc5c4)C3=O)n2)ccn1 [Example 33, (R)—N-(3-aminobenzo[d]isoxazol-6-yl)-2-((R)-4-(4-chloro-1-(2-methoxypyridin-4-yl)-1H-pyrazol-3-yl)-3-oxomorpholin-2-yl)-2-hydroxypropanamide]",0.817
13,"C[C@](O)(C(=O)Nc1ccc2c(N)noc2c1)[C@H]1OCCN(c2nn(-c3ccnc(C#N)c3)cc2Cl)C1=O [Example 34, (R)—N-(3-aminobenzo[d]isoxazol-6-yl)-2-((R)-4-(4-chloro-1-(2-cyanopyridin-4-yl)-1H-pyrazol-3-yl)-3-oxomorpholin-2-yl)-2-hydroxypropanamide]",0.57
14,"COc1cc(-n2cc(C)c(N3CCO[C@H]([C@@](C)(O)C(=O)Nc4ccc5c(N)noc5c4)C3=O)n2)ccn1 [Example 35, (R)—N-(3-aminobenzo[d]isoxazol-6-yl)-2-hydroxy-2-((R)-4-(1-(2-methoxypyridin-4-yl)-4-methyl-1H-pyrazol-3-yl)-3-oxomorpholin-2-yl)propanamide]",0.694
15,"COc1cc(-n2nc(N3CCO[C@H]([C@@](C)(O)C(=O)Nc4ccc5c(N)noc5c4)C3=O)cc2C)ccn1 [Example 36, (R)—N-(3-aminobenzo[d]isoxazol-6-yl)-2-hydroxy-2-((R)-4-(1-(2-methoxypyridin-4-yl)-5-methyl-1H-pyrazol-3-yl)-3-oxomorpholin-2-yl)propanamide]",0.0963
16,"C[C@](O)(C(=O)Nc1ccc2c(N)noc2c1)[C@H]1OCCN(c2ccn(-c3ccnnc3)n2)C1=O [Example 37, (R)—N-(3-aminobenzo[d]isoxazol-6-yl)-2-hydroxy-2-((R)-3-oxo-4-(1-(pyridazin-4-yl)-1H-pyrazol-3-yl)morpholin-2-yl)propanamide]",0.00436
17,"C[C@](O)(C(=O)Nc1ccc2c(N)noc2c1)[C@H]1OCCN(c2ccn(-c3cnnc(N4CCC4)c3)n2)C1=O [Example 38, (R)—N-(3-aminobenzo[d]isoxazol-6-yl)-2-((R)-4-(1-(6-(azetidin-1-yl)pyridazin-4-yl)-1H-pyrazol-3-yl)-3-oxomorpholin-2-yl)-2-hydroxypropanamide]",0.0232
18,"COc1cc(-n2ccc(N3CCO[C@H]([C@@](C)(O)C(=O)Nc4ccc5c(N)noc5c4)C3=O)n2)cnn1 [Example 39, (R)—N-(3-aminobenzo[d]isoxazol-6-yl)-2-hydroxy-2-((R)-4-(1-(6-methoxypyridazin-4-yl)-1H-pyrazol-3-yl)-3-oxomorpholin-2-yl)propanamide]",0.16
19,"[2H]C([2H])([2H])Oc1cc(-n2ccc(N3CCO[C@H]([C@@](C)(O)C(=O)Nc4ccc5c(N)noc5c4)C3=O)n2)cnn1 [Example 40, (2R)—N-(3-amino-1,2-benzoxazol-6-yl)-2-hydroxy-2-[(2R)-3-oxo-4-[1-[6-(trideuteriomethoxy)pyridazin-4-yl]pyrazol-3-yl]morpholin-2-yl]propanamide]",0.0037
20,"CC(C)Oc1cc(-n2ccc(N3CCO[C@H]([C@@](C)(O)C(=O)Nc4ccc5c(N)noc5c4)C3=O)n2)cnn1 [Example 41, (R)—N-(3-aminobenzo[d]isoxazol-6-yl)-2-hydroxy-2-((R)-4-(1-(6-isopropoxypyridazin-4-yl)-1H-pyrazol-3-yl)-3-oxomorpholin-2-yl)propanamide]",0.0578
21,"C[C@](O)(C(=O)Nc1ccc2c(N)noc2c1)[C@H]1OCCN(c2ccn(-c3cnnc(OC4CCC4)c3)n2)C1=O [Example 43, (R)—N-(3-aminobenzo[d]isoxazol-6-yl)-2-((R)-4-(1-(6-cyclobutoxypyridazin-4-yl)-1H-pyrazol-3-yl)-3-oxomorpholin-2-yl)-2-hydroxypropanamide]",0.535
22,"Cn1ncc(-n2ccc(N3CCO[C@H]([C@@](C)(O)C(=O)Nc4ccc5c(N)noc5c4)C3=O)n2)cc1=O [Example 44, (R)—N-(3-aminobenzo[d]isoxazol-6-yl)-2-hydroxy-2-((R)-4-(1-(1-methyl-6-oxo-1,6-dihydropyridazin-4-yl)-1H-pyrazol-3-yl)-3-oxomorpholin-2-yl)propanamide]",0.812
23,"C[C@](O)(C(=O)Nc1ccc2c(N)noc2c1)[C@H]1OCCN(c2ccn(-c3cnnc(C#N)c3)n2)C1=O [Example 45, (R)—N-(3-aminobenzo[d]isoxazol-6-yl)-2-((R)-4-(1-(6-cyanopyridazin-4-yl)-1H-pyrazol-3-yl)-3-oxomorpholin-2-yl)-2-hydroxypropanamide]",0.00261
24,"C[C@](O)(C(=O)Nc1ccc2c(N)noc2c1)[C@H]1OCCN(c2ccn(-c3cnnc(C(F)(F)F)c3)n2)C1=O [Example 46, (R)—N-(3-aminobenzo[d]isoxazol-6-yl)-2-hydroxy-2-((R)-3-oxo-4-(1-(6-(trifluoromethyl)pyridazin-4-yl)-1H-pyrazol-3-yl)morpholin-2-yl)propanamide]",0.00141
25,"C[C@](O)(C(=O)Nc1ccc2c(N)noc2c1)[C@H]1OCCN(c2nn(-c3ccnnc3)cc2F)C1=O [Example 47, (R)—N-(3-aminobenzo[d]isoxazol-6-yl)-2-((R)-4-(4-fluoro-1-(pyridazin-4-yl)-1H-pyrazol-3-yl)-3-oxomorpholin-2-yl)-2-hydroxypropanamide]",0.00691
26,"C[C@](O)(C(=O)Nc1ccc2c(N)noc2c1)[C@H]1OCCN(c2nn(-c3cnnc(C#N)c3)cc2F)C1=O [Example 48, (R)—N-(3-aminobenzo[d]isoxazol-6-yl)-2-((R)-4-(1-(6-cyanopyridazin-4-yl)-4-fluoro-1H-pyrazol-3-yl)-3-oxomorpholin-2-yl)-2-hydroxypropanamide]",0.00415
